{
  "source": "patent US9957287B2",
  "about": "“Methods and compositions to treat type-1 and type-2 diabetes” (CORNELL UNIVERSITY, priority 2016, dated 2018)",
  "system": "β cells of DKO mice fed a HFD",
  "assay": "MEK162 treatment in vivo of TLR2/TLR4 DKO mice on HFD, histological analysis",
  "design": "species or system mouse",
  "method": "For S961 studies, 45-week-old mice under a LFD or HFD were anesthetized and subcutaneously implanted with osmotic pumps (ALZET) filled with insulin receptor antagonist S961 4 or vehicle PBS. Mice were infused with S961 at the dose of 10 nmoles/week for 2 weeks, followed by euthanization and histological analysis of islets. For MEK162 studies, TLR2/TLR4 DKO mice on HFD for 8 weeks were orally gavaged with MEK162 (20 mg/kg body weight, LC laboratories) or vehicle, twice daily for 2 days, followed by euthanization and histological analysis.\nFor quantification of β cell area, six independent pancreatic tissue sections from 3-4 mice were randomly selected. Total insulin-positive and total pancreas area was measured using the Aperio Imagescope and ImageJ, from which percentage of insulin-positive area was calculated. For quantitation of β cell proliferation, cytoplasmic insulin and nuclear Ki67 double-positive cells were counted as proliferating β cells. Percent of proliferating cells were calculated by dividing the number of Ki67 and insulin-double positive cells by insulin-positive cells of each islet. Islets from 3-4 mice in each group with ˜200-400 β cells in LFD and ˜2,000-7,300 β cells in HFD cohorts were analyzed using the ImageJ software.\nPancreas was fixed in 4% paraformaldehyde, embedded in paraffin, and sectioned by Cornell Histology Core Facility. Ten-micrometer-thick paraffin sections were stained with hematoxylin/eosin. For staining of insulin with immunofluorescence, paraffinembedded sections were rehydrated by sequentially washing in xylene, 100%, 95%, 75% ethanol and water. Then slides were boiled in […] for antigen exposure. After blocking using 5% donkey serum, primary guinea pig anti-rat insulin antibody (Linco, 1:200) were applied and incubated overnight at 4° C., followed with washes and incubation with FITC-conjugated donkey anti-guinea pig IgG (Jackson ImmunoResearch, 1:200). […] Fluorescence Images were captured under a Zeiss LSM710 confocal microscope at Cornell Biotechnology Resource Center Imaging Facility. […]",
  "key": {"[1]": {"details": "DKO mice on HFD for 8 weeks, MEK162 oral 20 mg/kg twice daily for the last 2 days"}},
  "data": [
    {"compound": "Cn1cnc2c(F)c(Nc3ccc(Br)cc3F)c(C(=O)NOCCO)cc21", "note": "[MEK162]", "values": [
      {"measurement": "ERK activation", "setting": "DKO mice fed a HFD, MEK162 oral 20 mg/kg twice daily for 2 days", "result": "blocked"},
      {"measurement": "nuclear entry of Cyclin D2", "setting": "[1]", "result": "abolished"},
      {"measurement": "β cell proliferation (Ki67-positive β cells)", "setting": "[1]", "result": "abolished"}
    ]}
  ]
}
